Reference: patent publication US8618289B2 (Ambit Biosciences Corporation, priority 2008, dated 2013)
Where two headings read alike, the source gives them in different places.

Tests used:
[1] = system: MEK1 phosphorylation in the A375 human melanoma cell line; assay: cells; conditions: A-375, read-out: pMEK IC50
RAF kinases [2] = molecular target: RAF kinases (Homo sapiens, UniProt P15056); conditions: read-out: BRAF WT Kd; BRAF WT
RAF kinases [3] = molecular target: RAF kinases (Homo sapiens, UniProt P04049); conditions: read-out: RAF1 Kd; RAF1
RAF kinases (Homo sapiens, UniProt P04049), sequence (P04049 whole entry): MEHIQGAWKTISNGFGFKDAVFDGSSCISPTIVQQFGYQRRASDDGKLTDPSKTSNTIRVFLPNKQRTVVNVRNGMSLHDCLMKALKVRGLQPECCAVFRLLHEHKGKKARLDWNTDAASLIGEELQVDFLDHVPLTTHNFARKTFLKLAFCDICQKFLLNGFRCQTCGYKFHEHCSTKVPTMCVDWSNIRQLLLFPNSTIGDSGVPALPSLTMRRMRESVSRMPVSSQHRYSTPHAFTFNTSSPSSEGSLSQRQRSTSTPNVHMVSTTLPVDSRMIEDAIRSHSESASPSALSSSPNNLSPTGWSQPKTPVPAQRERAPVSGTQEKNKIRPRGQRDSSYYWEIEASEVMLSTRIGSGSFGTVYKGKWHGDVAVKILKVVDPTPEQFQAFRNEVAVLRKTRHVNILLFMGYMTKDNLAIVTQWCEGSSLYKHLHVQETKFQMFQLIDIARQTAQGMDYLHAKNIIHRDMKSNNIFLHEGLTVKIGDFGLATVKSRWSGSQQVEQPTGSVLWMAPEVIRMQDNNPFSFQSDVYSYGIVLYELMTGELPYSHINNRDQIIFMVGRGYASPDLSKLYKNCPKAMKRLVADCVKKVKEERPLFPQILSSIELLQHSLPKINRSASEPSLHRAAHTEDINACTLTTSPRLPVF

[4] = system: 290 distinct kinases tested excluding mutant variants (321 in the larger panel); conditions: no asterisk: panel of 290 distinct kinases
Procedure: Competition binding assays used herein were developed, validated and performed as described in Fabian et al., Nature Biotechnology 2005, 23, 329-336. […] The liganded beads were blocked with excess biotin and washed with blocking buffer (SeaBlock (Pierce), 1% BSA, 0.05% Tween 20, 1 mM DTT) to remove unbound ligand and to reduce non-specific binding. […] Test compounds were prepared as 100× stocks in DMSO and rapidly diluted into the aqueous environment. DMSO was added to control assays lacking a test compound. Primary screen interactions were performed in polypropylene 384-well plates in a final volume of 34 μt, while Kd determinations were performed in polystyrene 96-well plates in a final volume of 135 pt. […] The kinase concentration in the eluates was measured by quantitative PCR. Each kinase was tested individually against each compound. Kds were determined using eleven serial threefold dilutions. A selectivity score, which is a quantitative measure of selectivity of a compound against a panel of enzymes, may be calculated for a compound by dividing the number of enzymes for which a compound meets a set criteria, (for example, a binding constant of 100 nM or less), by the total number of enzymes tested. […] (Note, for those compounds tested in a larger kinase panel, as indicated by an asterisk (*) next to the S35 score, the divisor is 321 (i.e. the larger panel contains 321 distinct kinases, excluding mutant variants.)).

RAF kinases [5] = molecular target: T1, RAF kinases (Homo sapiens, UniProt P15056, V600E); assay: biochemical
T1 sequence (P15056 whole entry V600E): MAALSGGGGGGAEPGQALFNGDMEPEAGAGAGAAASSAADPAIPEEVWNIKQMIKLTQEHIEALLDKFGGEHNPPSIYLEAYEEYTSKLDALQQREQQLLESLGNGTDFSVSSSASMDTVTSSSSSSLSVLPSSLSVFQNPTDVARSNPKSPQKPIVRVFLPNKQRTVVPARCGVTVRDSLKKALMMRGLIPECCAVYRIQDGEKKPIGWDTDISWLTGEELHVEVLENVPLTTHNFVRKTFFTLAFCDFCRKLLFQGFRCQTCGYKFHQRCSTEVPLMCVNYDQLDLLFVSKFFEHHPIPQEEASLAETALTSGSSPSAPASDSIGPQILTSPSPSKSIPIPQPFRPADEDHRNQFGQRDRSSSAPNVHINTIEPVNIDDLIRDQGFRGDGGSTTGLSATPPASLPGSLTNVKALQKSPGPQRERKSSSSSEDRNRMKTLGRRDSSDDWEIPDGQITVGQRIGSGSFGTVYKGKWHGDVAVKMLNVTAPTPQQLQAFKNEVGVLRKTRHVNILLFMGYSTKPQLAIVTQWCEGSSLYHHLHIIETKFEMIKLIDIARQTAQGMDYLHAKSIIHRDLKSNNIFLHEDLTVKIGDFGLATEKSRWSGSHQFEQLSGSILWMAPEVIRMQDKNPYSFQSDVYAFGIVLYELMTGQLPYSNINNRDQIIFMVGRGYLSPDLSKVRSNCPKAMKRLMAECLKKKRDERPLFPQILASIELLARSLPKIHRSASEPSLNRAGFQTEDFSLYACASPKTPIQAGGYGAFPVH

RAF kinases [6] = molecular target: T1, RAF kinases; conditions: read-out: BRAF V600E Kd; BRAF V600E
A375 cells = assay: cells; conditions: Homo sapiens, A-375, read-out: A375 Viability EC50
Erk1/2 = conditions: carrageenan-induced pleurisy rat model; Sawatzky et al.; cited from earlier work
[7] = system: tumor growth or metastases; conditions: preclinical studies; Sharma et al.; cited from earlier work

RAF kinases (Homo sapiens, UniProt P15056), sequence (P15056 whole entry): as the sequence (P15056 whole entry V600E) above, with E600V counted along it

With `COc1cc2ncnc(Sc3cccc(NC(=O)Nc4cc(C(C)(C)C(F)(F)F)nn4-c4ccccc4)c3)c2cc1OC` [Ex 307, 1-(3-(6,7-dimethoxyquinazolin-4-ylthio)phenyl)-3-(1-phenyl-3-(1,1,1-trifluoro-2-methylpropan-2-yl)-1H-pyrazol-5-yl)urea] the IC50 [1] was < 0.25 µM, the Kd (RAF kinases [2]) was > 1 µM and the Kd (RAF kinases [3]) was > 1 µM. For the same compound, the S35 [4] was “D (D > 0.40)” and the Kd (RAF kinases [5]) was 0.25 to 0.5 µM.

With `COc1cc2ncnc(Oc3cccc(NC(=O)Nc4cc(C(C)(C)C)nn4-c4ccccc4Cl)c3)c2cc1OC` [Ex 340, 1-(3-tert-butyl-1-(2-chlorophenyl)-1H-pyrazol-5-yl)-3-(3-(6,7-dimethoxyquinazolin-4-yloxy)phenyl)urea] the IC50 [1] was < 0.25 µM, the Kd (RAF kinases [2]) was > 1 µM and the Kd (RAF kinases [3]) was > 1 µM. The S35 [4] was “D (D > 0.40)” and the Kd (RAF kinases [5]) was 0.25 to 0.5 µM.

In the case of `COc1cc2ncnc(Sc3cccc(NC(=O)Nc4cc(C(C)(C)C)nn4-c4ccccc4Cl)c3)c2cc1OC` [Ex 341, 1-(3-tert-butyl-1-(2-chlorophenyl)-1H-pyrazol-5-yl)-3-(3-(6,7-dimethoxyquinazolin-4-ylthio)phenyl)urea], the IC50 [1] is reported as < 0.25 µM, the Kd (RAF kinases [2]) is reported as > 1 µM and the Kd (RAF kinases [3]) is reported as > 1 µM. The S35 [4] was “C (0.20 < C ≦ 0.40)” and the Kd (RAF kinases [5]) was 0.25 to 0.5 µM.

With `COc1cc2ncnc(Oc3cccc(NC(=O)Nc4cc(C(C)(C)C)nn4-c4ccccc4C)c3)c2cc1OC` [Ex 342, 1-(3-tert-butyl-1-o-tolyl-1H-pyrazol-5-yl)-3-(3-(6,7-dimethoxyquinazolin-4-yloxy)phenyl)urea] the IC50 [1] was < 0.25 µM, the Kd (RAF kinases [2]) was > 1 µM and the Kd (RAF kinases [3]) was > 1 µM. The S35 [4] was “D (D > 0.40)” and the Kd (RAF kinases [5]) was 0.25 to 0.5 µM.

For `COc1cc2ncnc(Sc3cccc(NC(=O)Nc4cc(C(C)(C)C)nn4-c4ccccc4C)c3)c2cc1OC` [Ex 343, 1-(3-tert-butyl-1-o-tolyl-1H-pyrazol-5-yl)-3-(3-(6,7-dimethoxyquinazolin-4-ylthio)phenyl)urea], the IC50 [1] was < 0.25 µM, the Kd (RAF kinases [2]) was > 1 µM and the Kd (RAF kinases [3]) was > 1 µM. For the same compound, the S35 [4] was “C (0.20 < C ≦ 0.40)” and the Kd (RAF kinases [5]) was 0.25 to 0.5 µM.

In the case of `COc1cc2ncnc(Oc3cccc(NC(=O)Nc4cc(C(C)(C)C)nn4-c4ccccn4)c3)c2cc1OC` [Ex 344, 1-(3-tert-Butyl-1-(pyridin-2-yl)-1H-pyrazol-5-yl)-3-(3-(6,7-dimethoxyquinazolin-4-yloxy)phenyl)urea], the IC50 [1] is reported as 0.5 to 1 µM, the Kd (RAF kinases [2]) is reported as > 1 µM and the Kd (RAF kinases [3]) is reported as > 1 µM. The S35 [4] was “C (0.20 < C ≦ 0.40)” and the Kd (RAF kinases [5]) was 0.5 to 1 µM.

For `COc1cc2ncnc(Sc3cccc(NC(=O)Nc4cc(C5(C(F)(F)F)CC5)nn4-c4ccc(C)cc4)c3)c2cc1OC` [Ex 347, 1-(3-(6,7-dimethoxyquinazolin-4-ylthio)phenyl)-3-(1-p-tolyl-3-(1-(trifluoromethyl)cyclopropyl)-1H-pyrazol-5-yl)urea], the IC50 [1] was < 0.25 µM, the Kd (RAF kinases [2]) was > 1 µM and the Kd (RAF kinases [3]) was > 1 µM. The S35 [4] was “D (D > 0.40)” and the Kd (RAF kinases [5]) was 0.25 to 0.5 µM.

For `COc1cc2ncnc(Sc3cccc(NC(=O)Nc4cc(C5CC5)nn4-c4ccccc4)c3)c2cc1OC` [Ex 354, 1-(3-cyclopropyl-1-phenyl-1H-pyrazol-5-yl)-3-(3-(6,7-dimethoxyquinazolin-4-ylthio)phenyl)urea], the IC50 [1] was 0.25 to 0.5 µM, the Kd (RAF kinases [2]) was < 0.25 µM and the Kd (RAF kinases [6]) was < 0.25 µM. For the same compound, the Kd (RAF kinases [3]) was < 0.25 µM, the S35 [4] was “C (0.20 < C ≦ 0.40)” and the EC50 (A375 cells) was 0.25 to 0.5 µM.

For `COc1cccc(-c2cc(=O)c3ccccc3o2)c1N` [PD98059], the “eosinophilic proinflammatory cytokine release” value (Erk1/2) is given as “inhibits eosinophilic proinflammatory cytokine release”.

In the case of `CNC(=O)c1cc(Oc2ccc(NC(=O)Nc3ccc(Cl)c(C(F)(F)F)c3)cc2)ccn1` [Sorafenib], the “tumor growth or metastases in animals” value [7] is listed as “decrease in tumor growth or metastases”.
